According to US20230404985A1, “METHODS OF TREATING TUMORS AND CANCERS HAVING DYSREGULATED WNT SIGNALING PATHWAYS” (ICAHN SCHOOL OF MEDICINE AT MOUNT SINAI, priority 2020, published 2023):

Legend:
[1] = test system: EZH2; test: Cellular fractionation, EZH2 localization in MYC-CTNNB1 tumor organoids; format: cell-based, mouse; conditions: WNTinib 1 μM, sorafenib 10 μM, 24 hours
Experimental: Cells were spun down again at 500 g, 4° C., for 5 minutes in ultra-low attachment 1.5 mL Eppendorf tubes. Cells were resuspended in 100 μL of lysis buffer 1 (50 mM HEPES-KOH, pH 7.5, 140 mM NaCl, 1 mM EDTA, 10% glycerol, 0.5% NP-40, 0.25% Triton X-100, lx protease/phosphatase inhibitors) and agitated at 4° C. for 10 minutes. Lysate was spun at 1,350 g, 4° C., for 5 minutes. The supernatant was saved for the cytoplasmic fraction. The pellet was resuspended in 100 μL of lysis buffer 2 (10 mM Tris-HCl, pH 8.0, 200 mM NaCl, 1 mM EDTA, 0.5 mM EGTA, lx protease/phosphatase inhibitors) and agitated at room temperature for 10 minutes. The supernatant was saved for the nuclear fraction. The pellet was resuspended in 35 μL of lysis buffer 3 (10 mM Tris-HCl, pH 8.0, 100 mM NaCl, 1 mM EDTA, 0.5 mM EGTA, 0.1% Na-Deoxycholate, 0.5% N-lauroylsarcosine, lx protease/phosphatase inhibitors) and agitated at 4° C. for 10 minutes. 1/10 volume of 10% Triton X-100 was added to the lysate, which was spun down at 20,000 g, 4° C., for 10 minutes. Supernatant was taken for chromatin fraction. […] SDS-PAGE was performed using standard procedures.
Next, EZH2 localization in WNTinib sensitive MYC-CTNNB1 and insensitive MYC-Tp53 tumor organoids was investigated. EZH2 localized diffusively in the MYC-CTNNB1 model but was primarily nuclear insoluble in the MYC-Tp53 model (FIG. 6E; lanes 7-9, left and right panels).

[2] = Single dose oral pharmacokinetics; format: in vivo, BALB/c mice; conditions: for half-life: 20 mg/kg oral gavage
Experimental: All animal experiments were carried out in accordance with ethical guidelines and approved by the Institutional Animal Care and Use Committee (IACUC), Biological Resource Center (BRC) A*STAR. BALB/c mice were purchased from InVivos, Singapore and fed with a standard laboratory diet and distilled water ad libitum. The animals were kept on a 12-hour light/dark cycle at 22±2° C. in individually ventilated caging systems with 50-65% humidity in the Biological Resource Centre, A*Star, Singapore. For single dose oral pharmacokinetic studies, female BALB/c mice (n=8, 6-8 weeks old) were used. The animals were fasted overnight and administered with a single oral dose (20 mg/kg) of WNTinib as prepared above. Blood samples were collected at pre-determined time points [0 (pre-dosing), 0.5, 1, 2, 4, 8, 12, and 24 hours] through the retro-orbital plexus (using micro hematocrit capillary tubes) into microvette CB300 K2E tubes. A sparse sampling technique (four mice per time point) was adopted during blood collection so that blood loss from each mouse was kept less than 10% of the total blood volume. Plasma was harvested by centrifuging the blood using a Sorvall Legend Micro 21R centrifuge (Thermo Scientific) at 3000 rpm for 15 minutes and stored at […] until further analysis. Mice were allowed to access feed 2 hours post-dosing and water ad libitum. Pharmacokinetic analysis of these compounds was performed using a Shimadzu UFLC prominence system (equipped with degasser (DGU-20A5), isopump (LC-20AD), autosampler (SIL-20AC HT) and column oven (CTO-20AC)) connected to a Sciex 4000 Q-Trap LC/MS/MS with heated electrospray ionization source. The primary stock solution (1.0 mg/mL) of WNTinib and Carbamazepine (Internal Standard, IS) were prepared in DMSO and used for subsequent dilutions. Required secondary and working stocks were prepared from the primary stocks using acetonitrile:water (75:25, v/v) as a diluent for the calibration curve (CC) and quality control (QC) studies. For the pharmacokinetic analysis, the mouse plasma was mixed with carbamazepine (50 ng/ml, final concentration) and extraction solvent (70% acetonitrile and 0.1% formic acid) and shaken for 10 minutes. After vigorous shaking, the samples were centrifuged at 14000 rpm for 20 minutes and the supernatant was collected. Chromatographic resolution of compound and the IS was achieved by injecting 1-2 μL of the processed sample on a Luna C18 100 Å column (50×2.0 mm, 5 μm; Phenomenex, USA) maintained at room temperature using a mobile phase consisting of 5 mM ammonium formate (buffered with 0.1% formic acid) and acetonitrile delivered at a flow-rate of 0.4 mL/minute. Quantitation was carried out using the multiple reaction monitoring of the transitions.

[3] = test system: MYC-Tp53 tumor organoid allografts; test: MYC-Tp53 tumor organoid allografts; format: in vivo, C57BL/6J mice; conditions: 30 mg/kg daily oral gavage
Experimental: 300,000 cells per allograft were prepared in 8 mg/mL Matrigel. 6-8-week-old C57BL/6J mice were shaved the day prior to injection. A 26^5/8-gauge needle was used to implant organoids into the flank in 100 μL Matrigel. Tumor allografts were measured daily with calipers, and upon an average volumetric measurement of 100 mm^3, animals were randomized and drug dosing was started. Drugs were dosed daily at 30 mg/kg via oral gavage. Tumor allografts were also measured daily.
MYC-CTNNB1 tumor organoids were engrafted into C57BL/6 mice and treatment was started when tumor volume reached 100 mm^3.

## CNC(=O)c1cc(Oc2ccc(NC(=O)Nc3ccc(Cl)c(C(F)(F)F)c3)cc2)ccn1 [sorafenib, reference compound]
[1]
  nuclear partitioning of EZH2: did not impact phosphorylation or nuclear to cytoplasmic ratios of EZH2
  pT367 EZH2 in the cytoplasm: did not impact phosphorylation
[2]; female, BALB/c, mouse, plasma
  half-life: 8 h
[3]
  activity in MYC-Tp53 allografts: better activity

## CNC(=O)c1cc(Oc2ccc(NC(=O)Nc3ccc(C(F)(F)C(F)(F)F)cc3)c(F)c2)ccn1 [WNTinib, 4-(3-fluoro-4-(3-(4-(perfluoroethyl)phenyl)ureido)phenoxy)-N-methylpicolinamide]
[1]
  nuclear partitioning of EZH2: increase in nuclear partitioning of EZH2
  pT367 EZH2 in the cytoplasm: ablated
[2]; 20 mg/kg oral
  detectable quantities of drug in blood plasma, time post dosing: up to 72 hours
[2]; female, BALB/c, mouse, plasma
  half-life: 9.38 h
[2]; female, BALB/c, mouse, plasma, 20 mg/kg oral, read-out: concentration 24 hours after oral dosing
  concentration at 24 h: 7 µM
[3]
  activity in MYC-Tp53 allografts: inactive
